According to patent publication US11466028B2, “Fused 1,4-oxazepines as BET protein degraders” (THE REGENTS OF THE UNIVERSITY OF MICHIGAN, priority 2016, dated 2022):
Read-outs that look alike come from different tables or passages of the source.

Assays:
MonoMac6 = assay: CellTiter-Glo cell viability, MonoMac6 leukemia cell line; assay type: cell-based; conditions: Homo sapiens, MONO-MAC-6, Table 5
Procedure: (§1) Cell growth inhibitory activity of representative Compounds of the Disclosure was determined using the CellTiter-Glo® Luminescent Cell Viability Assay. Cells were seeded in 384-well white opaque cell culture plates at a density of 2,000 cells/well with serially diluted compounds and incubated at 37° C. in an atmosphere of 95% air and 5% CO2 for 4 days. Cell viability was determined using the CellTiter-Glo® Luminescent Cell Viability Assay Kit (Promega, Madison, Wis.) according to the manufacture's instruction. Briefly, a volume of CellTiter-Glo® Reagent equal to the volume of cell culture medium was added to each well, and then the plates were incubated at room temperature for 10-20 minutes. The luminescent signal was measured using a Tecan Infinite M1000 multimode microplate reader (Tecan, Morrisville, N.C.). The half maximal inhibitory concentration (IC50) was calculated using the GraphPad Prism 5 software (GraphPad Software, La Jolla, Calif.).
(§2) Cpd. Nos. 18 and 19 were tested in various leukemia cell lines using the CellTiter-Glo® Luminescent Cell Viability Assay as described in Example 35.

MV4; 11 = assay: CellTiter-Glo cell viability, MV4;11 leukemia cell line; assay type: cell-based; conditions: Homo sapiens, Table 5
Procedure: as §1, §2

MDA-MB-231 [1] = assay: WST-8 cell growth inhibition assay, MDA-MB-231; assay type: cell-based; conditions: Homo sapiens, WST-8, Table 6
Procedure: (§3) Cpd. Nos. 7 and 18 were tested in various triple-negative breast cancer cell lines using the WST-8 cell growth assay.

MDA-MB-436 = assay: WST-8 cell growth inhibition assay, MDA-MB-436; assay type: cell-based; conditions: Homo sapiens, WST-8, Table 6
Procedure: as §3

RS4;11 = assay: CellTiter-Glo cell growth inhibition, RS4;11; assay type: cell-based; conditions: Homo sapiens
Method in brief: (§4)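 Leukemia cells seeded at 2,000 cells/well with serially diluted compounds, 4 days at 37 °C, 5% CO2. Viability by CellTiter-Glo luminescence after 10-20 min at RT. IC50 calculated from the curves.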

MDA-MB-157 = assay: WST-8 cell growth inhibition assay, MDA-MB-157; assay type: cell-based; conditions: Homo sapiens, WST-8, Table 6
Procedure: as §3

MOLM-13 = assay: CellTiter-Glo cell growth inhibition, MOLM-13; assay type: cell-based; conditions: Homo sapiens
Method in brief: as §4

MDA-MB-231 [2] = assay: CellTiter-Glo cell growth inhibition, MDA-MB-231; assay type: cell-based; conditions: Homo sapiens, MDA-MB-231, 96 h, 4 days, Table 4
Method in brief: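 Cells seeded at 2,000 cells/well with serially diluted compound and incubated 4 days at 37 °C, 5% CO2. Viability read by CellTiter-Glo luminescence after 10-20 min at room temperature; IC50 calculated from the dose-response.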

WHIM24 breast cancer PDX = WHIM24 breast cancer PDX model; assay type: in vivo; conditions: FIG. 5
Procedure: Representative Compounds of the Disclosure were tested in the RS4;11 and other xenograph models using similar techniques. […] No. 22 in the MDA-MB-231 TNBC model.

MOLM16 = assay: CellTiter-Glo cell viability, MOLM16 leukemia cell line; assay type: cell-based; conditions: Table 5
Procedure: as §1, §2

MDA-MB-468 = assay: WST-8 cell growth inhibition assay, MDA-MB-468; assay type: cell-based; conditions: Homo sapiens, WST-8, Table 6
Procedure: as §3

BRD4 = target: T1, BRD4 (Homo sapiens, UniProt O60885); assay: Western blot, degradation of BRD4 in RS4;11 cells; assay type: cell-based; conditions: 2.5 h, as compared to Compound A, FIG. 1
T1 construct: Collected cells were lysed in lysis buffer; endogenous in cells; host or cells: RS4;11 and MOLM-13 leukemia cells
Procedure: Cells were treated with compounds at the indicated concentrations for 2.5 h and 3 h, respectively, for RS4;11 (see FIG. 1) and MOLM-13 (see FIG. 2) cells. Compound A is ((S)-3-benzyl-6,9-dimethyl-2-((1-methyl-1H-pyrazol-4-yl)ethynyl)-4H,6H-thieno[2,3-e][1,2,4]triazolo[3,4-c][1,4]oxazepine). See Cpd. No. 85 of U.S. Appl. No. 62/295,271.
Collected cells were lysed in lysis buffer [1% CHAPS, 150 mM NaCl, 20 mM Tris-HCl, 1 mM. EDTA, 1 mM EGTA, and COMPLETE proteinase inhibitor (Roche)] for 30 minutes on ice. Protein concentrations were determined using the Bio-Rad Protein Assay Dye reagent. Whole tumor lysates (20 μg) were separated on a 4-20% Novex gels (Invitrogen). The separated proteins were transferred to a PVDF membrane (BIO-RAD) and the PVDF membrane was then blotted with 5% Blotting-Grade Blocker (BIO-RAD) for 1 hour at room temperature. The primary antibodies used were BRD4 rabbit polyclonal antibody [Bethyl Laboratories, Inc, cat #A301] and BRD2 antibody.
The BIO-RAD Clarity Western ECL Substrates (BIO-RAD) and HyBlot CL film (Denville) were used for signal development and detection using a SRX-101A tabletop processor (Konica Minolta).

IC50 (MonoMac6): 0.014 ± 0.004 nM
IC50 (MV4; 11): 0.06 ± 0.006 nM
IC50 (MDA-MB-231 [1]): 0.76 ± 0.08 nM
IC50 (MDA-MB-436): 1.52 ± 0.21 nM
IC50 (RS4;11; RS4-11, 96 h, 4 days, Table 4, read-out: RS-4, 11 IC50): 0.03 nM
IC50 (RS4;11; RS4-11, Table 5, read-out: IC50 (nM) RS4, 11): 0.004 ± 0.001 nM
IC50 (MDA-MB-157): 0.06 ± 0.01 nM
IC50 (MOLM-13; MOLM-13, 96 h, 4 days, Table 4, read-out: MOLM-13 IC50): 1 nM
IC50 (MOLM-13; MOLM-13, Table 5, read-out: IC50 (nM) MOLM13): 0.5 nM
IC50 (MDA-MB-231 [2]): 1.5 nM
IC50 (MOLM16): < 0.01 nM
IC50 (MDA-MB-468): 0.78 ± 0.06 nM
degradation of BRD4 protein (Western blot) (BRD4): induce degradation
Structure (SMILES): Cc1nnc2n1-c1sc(C#Cc3cnn(CCCC#Cc4cccc5c4CN(C4CCC(=O)NC4=O)C5=O)c3)c(Cc3ccccc3)c1CO[C@H]2C (stereo partly drawn) [Cpd. No. 18, 3-(4-(5-(4-(((S)-3-benzyl-6,9-dimethyl-4H,6H-thieno[2,3-e][1,2,4]triazolo[3,4-c][1,4]oxazepin-2-yl)ethynyl)-1H-pyrazol-1-yl)pent-1-yn-1-yl)-1-oxoisoindolin-2-yl) piperidine-2,6-dione]
tumor regression in the WHIM24 breast cancer PDX model (WHIM24 breast cancer PDX): induces tumor regression
